In assay [1] the target is T1, Muscarinic acetylcholine receptor M1 (Homo sapiens, UniProt P11229).
T1 sequence (P11229 whole entry): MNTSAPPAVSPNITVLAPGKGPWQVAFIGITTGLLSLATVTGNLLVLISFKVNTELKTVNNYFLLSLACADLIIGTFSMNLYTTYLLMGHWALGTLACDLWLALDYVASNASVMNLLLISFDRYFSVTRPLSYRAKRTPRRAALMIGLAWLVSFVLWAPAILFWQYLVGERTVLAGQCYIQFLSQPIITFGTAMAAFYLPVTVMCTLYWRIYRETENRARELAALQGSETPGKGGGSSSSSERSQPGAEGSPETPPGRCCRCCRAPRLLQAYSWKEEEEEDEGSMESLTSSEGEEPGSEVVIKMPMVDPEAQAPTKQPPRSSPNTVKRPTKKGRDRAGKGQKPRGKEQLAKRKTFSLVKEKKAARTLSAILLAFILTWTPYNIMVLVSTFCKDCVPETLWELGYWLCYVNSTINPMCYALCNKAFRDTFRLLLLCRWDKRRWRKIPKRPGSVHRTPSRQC
As to the kind of experiment: Positive allosteric modulation of human muscarinic M1 receptor.

Assay [2] deals with T2, Muscarinic acetylcholine receptor M1 (Homo sapiens) (UniProt P11229).
T2 sequence (whole entry): T1 sequence (P11229 whole entry)
The assay can be described thus: Positive allosteric modulation of human muscarinic M1 receptor assessed as leftward fold shift of acetylcholine-induced response at 30 uM relative to acetylcholine.

For assay [3], the target named is T2, Muscarinic acetylcholine receptor M1 (Homo sapiens). As to the kind of experiment: Positive allosteric modulation of human muscarinic M1 receptor relative to acetylcholine.
The target is the same in assay [4]. As to the kind of experiment: Positive allosteric modulation of human muscarinic M1 receptor at 30 uM.

This note sets out measurements from ChEMBL document CHEMBL2331354, “Spirocyclic replacements for the isatin in the highly selective, muscarinic M1 PAM ML137: the continued optimization of an MLPCN probe molecule” (Bioorg Med Chem Lett, 2013).

Calls of active or inactive are those of the source. The rule behind the calls is not given here.

The pEC50 is the negative decadic logarithm of the EC50, by convention in mol/L. Lower therefore signals a high EC50. The Emax is the greatest response seen or fitted, relative to the assay's reference. What is called EC50 is the concentration that produces a half-maximal response.

Consider `Cn1cc(-c2ccc(CN3C(=O)C(=O)c4ccccc43)c(F)c2)cn1`, for which the negative-log EC50 (pEC50) in assay [1] was found to be 6.22. The fold change (FC) in assay [2] was determined as 2.7. Further, the Emax in assay [3] amounted to 45%.

Regarding `Cc1nn(C)cc1-c1ccc(CN2C(=O)C3(CCN(C4CCCC4)C3)c3ccccc32)c(F)c1` (stereo not drawn), in assay [1], the EC50 was determined as 3 µM. The compound also registered a maximal effect (Emax) in assay [3] of 41%.

`Cn1cc(-c2ccc(CN3C(=O)C4(CCN(C5CCCC5)C4)c4ccccc43)cc2F)cn1` (stereo not drawn) showed an EC50 in assay [1] of 2 µM. In assay [3], this compound displayed an Emax of 28%.

Compound `Cn1cc(-c2cc(F)c(CN3C(=O)C4(CCN(C5CCCC5)C4)c4ccccc43)c(F)c2)cn1` (stereo not drawn) displayed an EC50 in assay [1] of 2.6 µM. The same compound came in with an Emax in assay [3] of 66%.

In assay [1], `Cn1cc(-c2ccc(CN3C(=O)C4(CCN(C5CCCC5)C4)c4ccccc43)c(F)c2F)cn1` (stereo not drawn) showed an EC50 of over 10 µM. Moreover, in assay [3], the Emax turned out to be 43%.

`Cn1cc(-c2cc(F)c(CN3C(=O)C4(CCN(C5CCCC5)C4)c4ccccc43)cc2F)cn1` (stereo not drawn): the EC50 in assay [1] was 4.1 µM. Besides, the Emax in assay [3] was determined as 51%.

In turn, `Cn1cc(-c2ccc(CN3C(=O)C4(CCN(C5CCCC5)C4)c4ccccc43)cc2)cn1` (stereo not drawn) showed an EC50 in assay [1] of 1.8 µM. Further, the Emax in assay [3] is 44%.

In turn, `CN1CCC2(CCN(Cc3ccc(-c4cnn(C)c4)cc3F)C2=O)C1` (stereo not drawn) gave an EC50 in assay [1] of over 10 µM. The compound also displayed an Emax in assay [3] of 28%.

For the compound `CN1CCC2(CC1)C(=O)N(Cc1ccc(-c3cnn(C)c3)cc1F)c1ccccc12`, in assay [1], it took 3.8 µM to reach a half-maximal effect (EC50). Moreover, the Emax in assay [3] was found to be 49%.

In assay [1], `Cn1cc(-c2ccc(CN3C(=O)C4(CCNCC4)c4ccccc43)c(F)c2)cn1` showed an EC50 of over 10 µM. In assay [3], this compound displayed an Emax of 29%.

As for `Cn1cc(-c2ccc(CN3C(=O)C4(OCCO4)c4ccccc43)c(F)c2)cn1`, in assay [1], the response was half-maximal at 2 µM (EC50). Also, the fold change (FC) in assay [2] amounted to 27. Besides, in assay [3], the Emax was determined as 62%.

`Cn1cc(-c2ccc(CN3CC4(OCCO4)c4ccccc43)c(F)c2)cn1` yielded an EC50 in assay [1] of over 10 µM. Further, in assay [3], the Emax stood at 43%.

In assay [1], `Cn1cc(-c2ccc(CN3C(=O)C4(CCCO4)c4ccccc43)cc2)cn1` (stereo not drawn) displayed an EC50 of over 10 µM. For the same compound, in assay [3], the Emax was 43%.

In assay [1], `CN1CCCC12C(=O)N(Cc1ccc(-c3cnn(C)c3)cc1)c1ccccc12` (stereo not drawn) registered a concentration giving a half-maximal response (EC50) of over 10 µM. This compound returned an Emax in assay [3] of 53%.

With `CN1CCCC12C(=O)N(Cc1ccc(Br)cc1)c1ccccc12` (stereo not drawn), the result in assay [4] was inactive.

With `C[Si](C)(C)C1COC2(C1)C(=O)N(Cc1ccc(Br)cc1)c1ccccc12` (stereo not drawn), the result in assay [4] was inactive.

Turning to `Cc1c(-c2ccc(CN3C(=O)C4(CCN(C5CCCC5)C4)c4ccccc43)c(F)c2)cnn1C` (stereo not drawn), the outcome in assay [4] was inactive.

With `Cc1nn(C)c(C)c1-c1ccc(CN2C(=O)C3(CCN(C4CCCC4)C3)c3ccccc32)c(F)c1` (stereo not drawn), the outcome in assay [4] was inactive.

`Cn1cc(-c2ccc(CN3C(=O)C4(CCN(C5CCCC5)C4)c4ccccc43)c(F)c2)c(C(F)(F)F)n1` (stereo not drawn): the outcome in assay [4] was inactive.

In the case of `Cn1cc(-c2ccc(CN3C(=O)C4(CCNC4)c4ccccc43)c(F)c2)cn1` (stereo not drawn), the outcome in assay [4] was inactive.

On to `O=C1N(Cc2ccc(Br)cc2)c2ccccc2C12CCCN2` (stereo not drawn), for which the result in assay [4] was inactive.

With `O=C1N(Cc2ccc(Br)cc2)c2ccccc2C12CCCO2` (stereo not drawn), the outcome in assay [4] was inactive.

`Cn1cc(-c2ccc(CN3C(=O)C4(CCN(c5ncccn5)C4)c4ccccc43)c(F)c2)cn1` (racemic) showed an EC50 in assay [1] of 2.5 µM. In addition, the fold change (FC) in assay [2] worked out at 17.4. This compound also showed an Emax in assay [3] of 64%.

Compound `CCN1CCC2(C1)C(=O)N(Cc1ccc(-c3cnn(C)c3)cc1F)c1ccccc12` (racemic) returned an EC50 in assay [1] of 3.2 µM. For the same compound, the fold change (FC) in assay [2] was 8.3. In assay [3], this compound gave an Emax of 59%.

Turning to `Cn1cc(-c2ccc(CN3C(=O)C4(CCN(CCF)C4)c4ccccc43)c(F)c2)cn1` (racemic), a half-maximal effect in assay [1] (EC50) was put at 4.1 µM. The fold change (FC) in assay [2] was 13.5. Also, the Emax in assay [3] was determined as 60%.

For `Cn1cc(-c2ccc(CN3C(=O)C4(CCN(CC(F)F)C4)c4ccccc43)c(F)c2)cn1` (racemic), the EC50 in assay [1] was over 10 µM. Also, the fold change (FC) in assay [2] was 5.9. The Emax in assay [3] was found to be 52%.

On to `CC(=O)N1CCC2(C1)C(=O)N(Cc1ccc(-c3cnn(C)c3)cc1F)c1ccccc12` (racemic), for which, in assay [1], the EC50 was over 10 µM. Besides, the Emax in assay [3] is 41%.

With `Cn1cc(-c2ccc(CN3C(=O)C4(CCN(C(=O)C5CCC5)C4)c4ccccc43)c(F)c2)cn1` (racemic), the EC50 in assay [1] is 6.3 µM. The Emax in assay [3] was determined as 45%.

`Cn1cc(-c2ccc(CN3C(=O)C4(CCN(C(=O)C5CCCCC5)C4)c4ccccc43)c(F)c2)cn1` (racemic) had a concentration giving a half-maximal response (EC50) in assay [1] of 5 µM. The Emax in assay [3] was 50%.

As to `Cn1cc(-c2ccc(CN3C(=O)C4(CCN(S(C)(=O)=O)C4)c4ccccc43)c(F)c2)cn1` (racemic), the EC50 in assay [1] was over 10 µM. Also, the Emax in assay [3] stood at 41%.

In assay [1], `Cn1cc(-c2ccc(CN3C(=O)C4(CCN(C5CCC5)C4)c4ccccc43)c(F)c2)cn1` (racemic) registered an EC50 of over 10 µM. Besides, in assay [3], the Emax turned out to be 48%.

In assay [1], `Cn1cc(-c2ccc(CN3C(=O)C4(CCN(C5CCCC5)C4)c4ccccc43)c(F)c2)cn1` (racemic) [listing 1 of 2 here] gave an EC50 of 3.1 µM. This counts as single-digit micromolar.

As for `Cn1cc(-c2ccc(CN3C(=O)C4(CCN(C5CCCCC5)C4)c4ccccc43)c(F)c2)cn1` (racemic), the EC50 in assay [1] is 5.2 µM. The same compound came in with an Emax in assay [3] of 60%.

In assay [1], `Cn1cc(-c2ccc(CN3C(=O)C4(CCN(C5CCCCCC5)C4)c4ccccc43)c(F)c2)cn1` (racemic) came in with an EC50 of 7.5 µM. In assay [3], the Emax was 50%.

In turn, `CC(C)N1CCC2(C1)C(=O)N(Cc1ccc(-c3cnn(C)c3)cc1F)c1ccccc12` (racemic) displayed an EC50 in assay [1] of over 10 µM. Further, the Emax in assay [3] is 30%.

With `Cn1cc(-c2ccc(CN3C(=O)C4(CCN(C(=O)OC(C)(C)C)C4)c4ccccc43)c(F)c2)cn1` (racemic), the result in assay [4] was inactive.

The compound `Cn1cc(-c2ccc(CN3C(=O)C4(CCN(C5CCCC5)C4)c4ccccc43)c(F)c2)cn1` (racemic) [listing 2 of 2 here] registered an Emax in assay [3] of 57%.

As for `Cn1cc(-c2ccc(CN3C(=O)C4(CCN(CC(F)(F)F)C4)c4ccccc43)c(F)c2)cn1` (racemic), the outcome in assay [4] was inactive.

Turning to `Cn1cc(-c2ccc(CN3C(=O)C4(CCN(c5ccccc5)C4)c4ccccc43)c(F)c2)cn1` (racemic), in assay [4], the outcome was inactive.

`CN1CCC2(C1)C(=O)N(Cc1ccc(-c3cnn(C)c3)cc1F)c1ccccc12` (single isomer, unassigned) [listing 1 of 2 here]: a half-maximal effect in assay [1] (EC50) was put at 2.9 µM. This lies in the single-digit micromolar range.

For the compound `CN1CCC2(C1)C(=O)N(Cc1ccc(-c3cnn(C)c3)cc1F)c1ccccc12` (single isomer, unassigned) [listing 2 of 2 here], the fold change (FC) in assay [2] came out at 7.2. In addition, the Emax in assay [3] was 50%.

As to `Cn1cc(-c2ccc(CN3C(=O)C4(CCN(C5CCCC5)C4)c4ccccc43)c(F)c2)cn1` (single isomer, unassigned; 19g) [listing 1 of 2 here], the EC50 in assay [1] was 1.6 µM.

In the case of `Cn1cc(-c2ccc(CN3C(=O)C4(CCN(C5CCCC5)C4)c4ccccc43)c(F)c2)cn1` (single isomer, unassigned; 19g) [listing 2 of 2 here], the fold change (FC) in assay [2] was 28. Moreover, the Emax in assay [3] worked out at 69%.

`Cn1cc(-c2ccc(CN3C(=O)C4(CCN(C5CCCC5)C4)c4ccccc43)c(F)c2)cn1` (single isomer, unassigned; 19h) showed an Emax in assay [3] of 33%.

The compound `CN1CCC2(C1)C(=O)N(Cc1ccc(-c3cnn(C)c3)cc1F)c1ccccc12` (stereo in doubt; 18d) [listing 1 of 2 here] registered an EC50 in assay [1] of 3.2 µM.

Compound `CN1CCC2(C1)C(=O)N(Cc1ccc(-c3cnn(C)c3)cc1F)c1ccccc12` (stereo in doubt; 18d) [listing 2 of 2 here] gave an Emax in assay [3] of 65%.

Compound `CN1CCC2(C1)C(=O)N(Cc1ccc(-c3cnn(C)c3)cc1F)c1ccccc12` (stereo in doubt; 19a) [listing 1 of 2 here] gave an EC50 in assay [1] of 2.9 µM.

Turning to `CN1CCC2(C1)C(=O)N(Cc1ccc(-c3cnn(C)c3)cc1F)c1ccccc12` (stereo in doubt; 19a) [listing 2 of 2 here], the fold change (FC) in assay [2] amounted to 21. Further, in assay [3], the Emax amounted to 67%.
